Experimental findings from patent publication US11148998B2, “Dimethyl-nonatetraenyl-trimethyl-cyclohexyl compounds and uses thereof” (The Regents of the University of Michigan, priority 2017, dated 2021) are described below.

The test system of series [1] is human dermal fibroblasts. Kind of series: Retinoid-induced fibroblast cytotoxicity. It is filed as cell-based. The note with it: KBM 1.5 mM calcium, 72 hours, up to 5 μg/mL. The method, then: Human dermal fibroblasts are isolated from skin biopsies as described previously and grown in monolayer culture using DMEM supplemented with 10% fetal bovine serum as culture medium (see, e.g., Varani J, et al., J Clin Invest. 1994; 94; Varani J, et al., J. Invest. Dermatol. 94:717-723, 1990). Growth is at 37° C. in a humidified atmosphere containing 5% CO2 and 95% air. For experimental studies, cells are plated at 5×10^4 cells per well in wells of a 24-well culture dish in the same culture medium. One day later, cells are washed and the DMEM culture medium is replaced with Keratinocyte Basal Medium (KBM).
This assay is similar to the fibroblast cytotoxicity assay except that the human dermal fibroblasts are plated in culture medium (KBM) supplemented with a concentration of calcium (1.5 mM) that supports survival on its own. The biologically active retinoids are included in the culture medium and the cells incubated for 72 hours. Under such conditions, there is little net increase in growth with added retinoid, and at high concentrations, cytotoxicity occurs (see, e.g., Varani, J., et al., J. Invest. Dermatol. 101:839-842).
That is, there was little decline in cell numbers compared to control with retinoid concentrations up to 5 μg/mL.

The subject of series [2] is NB4 cells (PML cell line). Put plainly: NB4 cell differentiation (morphology, phase contrast). The series is classed as cell-based. The settings on record: 50 μg/mL, 48 hours. The method, then:
FIGS. 8A & FIG. 8B: Morphological change with Compound 2. Control NB4 cells are shown after 48 hours incubation in culture medium in FIG. 8A.
Concentration-dependent and time-dependent growth inhibition studies were carried out in vitro. Cells were plated in wells of a 24-well dish at 5×10^4 cells per well in maintenance media (DMEM+2% fetal bovine serum. Each of the experimental retinoids were added at the desired concentrations and the cells incubated for 3 days. At the end of the incubation period, cells were counted using an electronic particle counter. Viability was determined by exclusion of trypan blue. To assess differentiation, cells were treated for three days with either the desired agent (or control) in culture medium. At the end of the incubation period, the cells were photographed under phase-contrast microscopy.
Inhibition could be seen at both 48 and 72 hours of incubation. […] The polarized, flattened morphology is evidence of differentiation. These studies, thus, indicate that the experimental retinoids have potential as anti-cancer agents.

`CC1=C(/C=C/C(C)=C/C=C/C(C)=C/C(=O)O)C(C)(C)CCC1` [ATRA, all-trans retinoic acid, reference compound]: the “fibroblast cytotoxicity (decline in cell numbers compared to control)” value in series [1] is recorded as “lack of fibroblast cytotoxicity at concentrations as high as 5 μg/mL”. As to `CC1=C(/C=C/C(C)=C\C=C\C(C)=C\C(=O)N(C)CC(=O)c2ccccc2)C(C)(C)CCC1` [Example 2, (2E,4E 6Z,8E)-N,3,7-trimethyl—N-(2-oxo-2-phenylethyl)-9-(2,6,6-trimethylcyclohex-1-en-1-yl)nona-2,4,6,8-tetraenamide], the “morphological change (evidence of differentiation)” value in series [2] is “polarized and flattened”.
